Measured values from US20150225369A1, “DDR2 INHIBITORS FOR THE TREATMENT OF OSTEOARTHRITIS” (Merck Patent GmbH, priority 2012, published 2015).

Molecular target: T1, His-tagged human recombinant DDR-2 kinase domain (His-TEV-DDR2 467-855 aa) (Homo sapiens, UniProt Q16832)
T1 construct: His-TEV-DDR2 467-855 aa
T1 sequence (Q16832 467-855): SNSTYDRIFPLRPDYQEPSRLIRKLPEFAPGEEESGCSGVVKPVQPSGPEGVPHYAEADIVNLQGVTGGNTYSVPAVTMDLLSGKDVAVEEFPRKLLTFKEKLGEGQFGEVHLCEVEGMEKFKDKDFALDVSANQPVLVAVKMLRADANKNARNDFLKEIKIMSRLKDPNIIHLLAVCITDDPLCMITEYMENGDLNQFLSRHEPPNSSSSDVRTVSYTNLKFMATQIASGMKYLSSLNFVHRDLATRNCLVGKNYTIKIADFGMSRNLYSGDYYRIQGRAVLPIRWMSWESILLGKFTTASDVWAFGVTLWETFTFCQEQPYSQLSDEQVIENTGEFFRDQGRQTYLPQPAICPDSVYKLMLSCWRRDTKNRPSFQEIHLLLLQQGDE
Assay: Autophosphorylation assay for biochemical activity testing of DDR2 (HTRF)
Experimental: The autophosphorylation assay was run in two steps: the enzymatic reaction in which His-tagged DDR2 with ATP as co-substrate phosphorylates itself and the detection reaction where a time resolved FRET between XL665® labelled anti-6His antibody bound to the His-tag of the enzyme and cryptate labelled anti-phospho-Tyrosine-antibody (PT66) bound the phosphorylated Tyrosine residue of DDR2 was analysed. The autophosphorylation activity was detectable directly via the increase in HTRF signal.
The autophosphorylation assay was performed as 1536 well or 384 well HTRF® (Cisbio, Codolet, France) assay format in Greiner low volume medium binding 384-well microtiter plates and was used for high throughput screen. […] The ratio of the emission signals was determined. The full value used was the inhibitor-free reaction.

[1] = biochemical DDR2 autophosphorylation
[2] = 4 nM DDR2 kinase domain, 150 μM ATP, 150 min at 22° C.

Row | Structure (SMILES) | IC50 [1] | IC50 [2]
1 | CNC(=O)c1cc(Oc2ccc(COC(=O)Nc3cc(C(F)(F)F)ccn3)cc2)ccn1 [compound 3] |  | 33 nM
2 | O=C(NCc1ccc(Oc2ccncc2)cc1)Nc1ccccc1C(F)(F)F [compound 26] | 20000 nM | 
3 | O=C(NCc1ccc(Oc2ccncc2)cc1)Nc1ccc(Br)cc1 [compound 9] | 3800 nM | 
4 | CNC(=O)c1cc(Oc2ccc(CNC(=O)Nc3ncc(C(F)(F)F)cc3Cl)cc2)ccn1 [compound 91, 4-{4-[3-(3-Chloro-5-trifluoromethyl-pyridin-2-yl)-ureidomethyl]-phenoxy}-pyridine-2-carboxylic acid methylamide] | 6600 nM | 
5 | O=C(NCc1ccc(Oc2ccncc2)cc1)Nc1ccc(F)cc1 [compound 11] | 3400 nM | 
6 | CNC(=O)c1cc(Oc2ccc(CNC(=O)Nc3cc(C)cnc3Cl)cc2)ccn1 [compound 22] |  | 710 nM
7 | O=C(NCc1ccc(Oc2ccncc2)cc1)Nc1ccc(OC(F)(F)F)cc1 [compound 55, 1-[4-(Pyridin-4-yloxy)-benzyl]-3-(4-trifluoromethoxy-phenyl)-urea] | 7500 nM | 
8 | CNC(=O)c1cc(Oc2ccc(CNC(=O)Nc3ccc(C(=O)OC)cc3OC)cc2)ccn1 [compound 82, 3-Methoxy-4-{3-[4-(2-methylcarbamoyl-pyridin-4-yloxy)-benzyl]-ureido}-benzoic acid methyl ester] | 2900 nM | 
9 | COc1ccc(NC(=O)NCc2ccc(Oc3ccncc3)cc2)cc1Cl [compound 60, 1-(3-Chloro-4-methoxy-phenyl)-3-[4-(pyridin-4-yloxy)-benzyl]-urea] | 2800 nM | 
10 | CNC(=O)c1cc(Oc2ccc(COC(=O)Nc3cc(C(F)(F)F)ccn3)cc2C)ccn1 [compound 4] |  | 41 nM
11 | Cn1cc(C(F)(F)F)cc(NC(=O)NCc2ccc(Oc3ccncc3C(F)(F)F)cc2)c1=O [compound 13] |  | 1600 nM
12 | CNC(=O)c1cc(Oc2ccc(CNC(=O)Nc3cnc4ccccc4c3)cc2)ccn1 [compound 10] |  | 290 nM
13 | CNC(=O)c1cc(Oc2ccc(CNC(=O)Nc3ccccn3)cc2)ccn1 [compound 85, 4-{4-[(3-Pyridin-2-yl-ureido)-methyl]-phenoxy}-pyridine-2-carboxylic acid methylamide] | 3800 nM | 
14 | Cc1cc(NC(=O)NCc2ccc(Oc3ccncc3)cc2)ccc1Br [compound 58, 1-(4-Bromo-3-methyl-phenyl)-3-[4-(pyridin-4-yloxy)-benzyl]-urea] | 4700 nM | 
15 | Cc1cc(Cl)ccc1NC(=O)NCc1ccc(Oc2ccncc2)cc1 [compound 54, 1-(4-Chloro-2-methyl-phenyl)-3-[4-(pyridin-4-yloxy)-benzyl]-urea] | ≥ 100000 nM | 
16 | CNC(=O)c1cc(Oc2ccc(CNC(=O)Nc3cc(C(F)(F)F)ccc3OCC(=O)O)cc2)ccn1 [compound 94, (2-{3-[4-(2-Methylcarbamoyl-pyridin-4-yloxy)-benzyl]-ureido}-4-trifluoromethyl-phenoxy)-acetic acid] | 1600 nM | 
17 | O=C(NCc1ccc(Oc2ccncc2)cc1)Nc1ccccc1 [compound 245, 1-Phenyl-3-[4-(pyridin-4-yloxy)-benzyl]-urea] | 9200 nM | 
18 | CNC(=O)c1cc(Oc2ccc(CNC(=O)Nc3cc(Cl)nc(Cl)c3)cc2)ccn1 [compound 2] |  | 1500 nM
19 | CNC(=O)c1cc(Oc2ccc(CNC(=O)Nc3cc(C)c(Cl)cc3OCCCCN(C)C)cc2)ccn1 [compound 161, 4-(4-{3-[4-Chloro-2-(4-dimethylamino-butoxy)-5-methyl-phenyl]-ureidomethyl}-phenoxy)-pyridine-2-carboxylic acid methylamide] | 160 nM | 
20 | O=C(NCc1ccc(Oc2ccncc2)cc1)Nc1ccc(Cl)c(Cl)c1 [compound 38, 1-(3,4-Dichloro-phenyl)-3-[4-(pyridin-4-yloxy)-benzyl]-urea] | 2100 nM | 

Further compounds by falling IC50 [1], results first:

Row | IC50 [1] | IC50 [2] | Structure (SMILES)
21 | 1400 nM |  | O=C(NCc1ccc(Oc2ccncc2)cc1)Nc1cc(Cl)c(Cl)cc1Cl [compound 2]
22 | 1200 nM |  | CNC(=O)c1cc(Oc2ccc(CNC(=O)Nc3cc(C)c(Cl)cc3OCCN3CCCC3)c(C)c2)ccn1 [compound 134, 4-(4-{3-[4-Chloro-5-methyl-2-(2-pyrrolidin-1-yl-ethoxy)-phenyl]-ureidomethyl}-3-methyl-phenoxy)-pyridine-2-carboxylic acid methylamide]
23 | 1000 nM |  | Cc1cccc(NC(=O)NCc2ccc(Oc3ccncc3)cc2)c1 [compound 6]
24 | 770 nM |  | COc1cc(Cl)c(C)cc1NC(=O)NCc1ccc(Oc2ccncc2)c(C)c1 [compound 248, 1-(4-Chloro-2-methoxy-5-methyl-phenyl)-3-[3-methyl-4-(pyridin-4-yloxy)-benzyl]-urea]
25 | 740 nM |  | Cc1ccc(NC(=O)NCc2ccc(Oc3ccncc3)cc2)cc1Cl [compound 27]
26 | 620 nM |  | CNC(=O)c1cc(Oc2ccc(CNC(=O)Nc3cc(C)c(Cl)cc3OCCN(C)C(=O)OC(C)(C)C)cc2)ccn1 [compound 244, [2-(5-Chloro-4-methyl-2-{3-[4-(2-methylcarbamoyl-pyridin-4-yloxy)-benzyl]-ureido}-phenoxy)-ethyl]-methyl-carbamic acid tert-butyl ester]
27 | 410 nM |  | CNC(=O)c1cc(Oc2ccc(CNC(=O)Nc3cc(C)c(Cl)cc3OCCN3CCCC3)cc2)ccn1 [compound 116, 4-(4-{3-[4-Chloro-5-methyl-2-(2-pyrrolidin-1-yl-ethoxy)-phenyl]-ureidomethyl}-phenoxy)-pyridine-2-carboxylic acid methylamide]
28 | 290 nM |  | CNC(=O)c1cc(Oc2ccc(CNC(=O)Nc3cnc4ccccc4c3)cc2)ccn1 [compound 97, 4-{4-[(3-Quinolin-3-yl-ureido)-methyl]-phenoxy}-pyridine-2-carboxylic acid methylamide]
29 | 270 nM |  | CNC(=O)c1cc(Oc2ccc(CNC(=O)Nc3cc(Cl)ccc3OC)c(C)c2)ccn1 [compound 104, 4-{4-[3-(5-Chloro-2-methoxy-phenyl)-ureidomethyl]-3-methyl-phenoxy}-pyridine-2-carboxylic acid methylamide]
30 | 190 nM |  | CNC(=O)c1cc(Oc2ccc(CNC(=O)Nc3cc4ccccc4nc3OC)cc2)ccn1 [compound 101, 4-{4-[3-(2-Methoxy-quinolin-3-yl)-ureidomethyl]-phenoxy}-pyridine-2-carboxylic acid methylamide]
31 | 180 nM |  | CNC(=O)c1cc(Oc2ccc(CNC(=O)Nc3cc(C)c(Cl)cc3OCCNS(C)(=O)=O)cc2)ccn1 [compound 193, 4-(4-{3-[4-Chloro-2-(2-methanesulfonylamino-ethoxy)-5-methyl-phenyl]-ureidomethyl}-phenoxy)-pyridine-2-carboxylic acid methylamide]
32 | 100 nM |  | O=C(NCc1ccc(Oc2ccncc2)cc1)Nc1ccc(F)c(C(F)(F)F)c1 [compound 46, 1-(4-Fluoro-3-trifluoromethyl-phenyl)-3-[4-(pyridin-4-yloxy)-benzyl]-urea]
33 | 96 nM |  | CNC(=O)c1cc(Oc2ccc(CNC(=O)Nc3cc(C(F)(F)F)ccc3OCCO)cc2)ccn1 [compound 197, 4-(4-{3-[2-(2-Hydroxy-ethoxy)-5-trifluoromethyl-phenyl]-ureidomethyl}-phenoxy)-pyridine-2-carboxylic acid methylamide]
34 | 72 nM |  | CNC(=O)c1cc(Oc2ccc(CNC(=O)Nc3cc(C(F)(F)F)ccc3OCCN3CCOCC3)cc2)ccn1 [compound 109, 4-(4-{3-[2-(2-Morpholin-4-yl-ethoxy)-5-trifluoromethyl-phenyl]-ureidomethyl}-phenoxy)-pyridine-2-carboxylic acid methylamide]
35 | 57 nM |  | CNC(=O)c1cc(Oc2ccc(CNC(=O)Nc3cc(C(F)(F)F)c(Cl)cc3OCC(=O)OC)cc2)ccn1 [compound 113, (5-Chloro-2-{3-[4-(2-methylcarbamoyl-pyridin-4-yloxy)-benzyl]-ureido}-4-trifluoromethyl-phenoxy)-acetic acid methyl ester]
36 | 41 nM |  | CNCCOc1cc(Cl)c(C(F)(F)F)cc1NC(=O)NCc1ccc(Oc2ccnc(C(=O)NC)c2)c(C)c1 [compound 147, 4-(4-{3-[4-Chloro-2-(2-methylamino-ethoxy)-5-trifluoromethyl-phenyl]-ureidomethyl}-2-methyl-phenoxy)-pyridine-2-carboxylic acid methylamide]
37 | 36 nM |  | O=C(NCc1ccc(Oc2ccncc2)cc1)Nc1cccc(C(F)(F)F)c1 [compound 4]
38 | 27 nM |  | CNC(=O)c1cc(Oc2ccc(CNC(=O)Nc3cc(Cl)c(C)cc3OCCN)cc2)ccn1 [compound 176, 4-(4-{3-[2-(2-Amino-ethoxy)-5-chloro-4-methyl-phenyl]-ureidomethyl}-phenoxy)-pyridine-2-carboxylic acid methylamide]
39 | 21 nM |  | CNC(=O)c1cc(Oc2ccc(CNC(=O)Nc3cc(C(F)(F)F)ccc3OC)cc2F)ccn1 [compound 217, 4-{2-Fluoro-4-[3-(2-methoxy-5-trifluoromethyl-phenyl)-ureidomethyl]-phenoxy}-pyridine-2-carboxylic acid methylamide]
